According to patent US9549921B2, “Heterocyclic compounds and methods of use thereof for the treatment of hepatitis C” (priority 2014, dated 2017):

Experiments:
HCV replicon genotype 1a = assay: HCV replicon assay, genotype 1a (cell ELISA for NS3/4A); assay type: cell-based, hepatitis C virus; conditions: Hepatitis C virus, 96 h, read-out: 1a IC50 (nM), HCV genotype 1a replicon cells, 96 hours incubation, NS3/4A ELISA readout, % of DMSO control
In short: (§1)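 Readout is NS3/4A protein level from an antibody-based cell ELISA, serving as an indirect measure of replicon RNA; IC50 fitted with a four-parameter function relative to DMSO control. Replicon cells, kept under G418 beforehand, were plated with serial compound dilutions minus G418 for 96 hours.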

HCV replicon genotype 1b = assay: HCV replicon assay, genotype 1b (cell ELISA for NS3/4A); assay type: cell-based, hepatitis C virus; conditions: Hepatitis C virus, 96 h, read-out: 1b IC50 (nM), HCV genotype 1b replicon cells, 96 hours incubation, NS3/4A ELISA readout, % of DMSO control
In short: as §1

SMILES	IC50 (HCV replicon genotype 1a)	IC50 (HCV replicon genotype 1b)
CNC(=O)c1c(-c2ccc(F)cc2)oc2cc(N(C)S(C)(=O)=O)c([C@H]3CCCN(C(=O)c4n[nH]c5cc(Br)ccc45)C3)cc12 [Example 99, 5-{(3R)-1-[(6-bromo-1H-indazol-3-yl)carbonyl]piperidin-3-yl}-2-(4-fluorophenyl)-N-methyl-6-[methyl(methylsulfonyl)amino]-1-benzofuran-3-carboxamide]	137 nM	66.7 nM
CNC(=O)c1c(-c2ccc(F)cc2)oc2cc(N(C)S(C)(=O)=O)c([C@H]3CCCN(C(=O)c4nn(CC5CC5)c5ccccc45)C3)cc12 [Example 100, 5-[(3R)-1-{[1-(cyclopropylmethyl)-1H-indazol-3-yl]carbonyl}piperidin-3-yl]-2-(4-fluorophenyl)-N-methyl-6-[methyl(methylsulfonyl)amino]-1-benzofuran-3-carboxamide]	65 nM	20.4 nM
CNC(=O)c1c(-c2ccc(F)cc2)oc2cc(N(C)S(C)(=O)=O)c([C@H]3CCCN(C(=O)c4cn(C)c5ccccc45)C3)cc12 [Example 101, 2-(4-fluorophenyl)-N-methyl-5-{(3R)-1-[(1-methyl-1H-indol-3-yl)carbonyl]piperidin-3-yl}-6-[methyl(methylsulfonyl)amino]-1-benzofuran-3-carboxamide]	103 nM	55.9 nM
CNC(=O)c1c(-c2ccc(F)cc2)oc2cc(N(C)S(C)(=O)=O)c([C@H]3CCCN(C(=O)c4c[nH]c5cc(F)ccc45)C3)cc12 [Example 102, 5-{(3R)-1-[(6-fluoro-1H-indol-3-yl)carbonyl]piperidin-3-yl}-2-(4-fluorophenyl)-N-methyl-6-[methyl(methylsulfonyl)amino]-1-benzofuran-3-carboxamide]	345 nM	295 nM
CNC(=O)c1c(-c2ccc(F)cc2)oc2cc(N(C)S(C)(=O)=O)c([C@H]3CCCN(C(=O)c4cn5c(Br)cccc5n4)C3)cc12 [Example 103, 5-{(3R)-1-[(5-bromoimidazo[1,2-a]pyridin-2-yl)carbonyl]piperidin-3-yl}-2-(4-fluorophenyl)-N-methyl-6-[methyl(methylsulfonyl)amino]-1-benzofuran-3-carboxamide]	212 nM	110 nM
CNC(=O)c1c(-c2ccc(F)cc2)oc2cc(N(C)S(C)(=O)=O)c([C@H]3CCCN(C(=O)c4cn5cc(Cl)cc(N)c5n4)C3)cc12 [Example 104, 5-{(3R)-1-[(8-amino-6-chloroimidazo[1,2-a]pyridin-2-yl)carbonyl]piperidin-3-yl}-2-(4-fluorophenyl)-N-methyl-6-[methyl(methylsulfonyl)amino]-1-benzofuran-3-carboxamide]	284 nM	136 nM
CNC(=O)c1c(-c2ccc(F)cc2)oc2cc(N(C)S(C)(=O)=O)c([C@H]3CCCN(C(=O)c4ccn5nncc5c4)C3)cc12 [Example 105, 2-(4-fluorophenyl)-N-methyl-6-[methyl(methylsulfonyl)amino]-5-[(3R)-1-([1,2,3]triazolo[1,5-a]pyridin-5-ylcarbonyl)piperidin-3-yl]-1-benzofuran-3-carboxamide]	347 nM	219 nM
CNC(=O)c1c(-c2ccc(F)cc2)oc2cc(N(C)S(C)(=O)=O)c([C@H]3CCCN(C(=O)c4cc5ccccn5c4)C3)cc12 [Example 106, 2-(4-fluorophenyl)-5-[(3R)-1-(indolizin-2-ylcarbonyl)piperidin-3-yl]-N-methyl-6-[methyl(methylsulfonyl)amino]-1-benzofuran-3-carboxamide]	123 nM	51.5 nM
CNC(=O)c1c(-c2ccc(F)cc2)oc2cc(N(C)S(C)(=O)=O)c([C@H]3CCCN(C(=O)c4cn5c(Cl)cccc5n4)C3)cc12 [Example 107, 5-{(3R)-1-[(5-chloroimidazo[1,2-a]pyridin-2-yl)carbonyl]piperidin-3-yl}-2-(4-fluorophenyl)-N-methyl-6-[methyl(methylsulfonyl)amino]-1-benzofuran-3-carboxamide]	389 nM	116 nM
CNC(=O)c1c(-c2ccc(F)cc2)oc2cc(N(C)S(C)(=O)=O)c([C@H]3CCCN(C(=O)C(c4ccccc4)c4ccccc4)C3)cc12 [Example 108, 5-[(3R)-1-(diphenylacetyl)piperidin-3-yl]-2-(4-fluorophenyl)-N-methyl-6-[methyl(methylsulfonyl)amino]-1-benzofuran-3-carboxamide]	266 nM	53 nM
CNC(=O)c1c(-c2ccc(F)cc2)oc2cc(N(C)S(C)(=O)=O)c([C@@H]3CCCN(S(=O)(=O)Cc4ccncc4)C3)cc12 [Example 109, 2-(4-fluorophenyl)-N-methyl-6-[methyl(methylsulfonyl)amino]-5-{(3S)-1-[(pyridin-4-ylmethyl)sulfonyl]piperidin-3-yl}-1-benzofuran-3-carboxamide]	104 nM	26.2 nM
CNC(=O)c1c(-c2ccc(F)cc2)oc2cc(N(C)S(C)(=O)=O)c([C@@H]3CCCN(S(=O)(=O)Cc4cccnc4)C3)cc12 [Example 110, 2-(4-fluorophenyl)-N-methyl-6-[methyl(methylsulfonyl)amino]-5-{(3S)-1-[(pyridin-3-ylmethyl)sulfonyl]piperidin-3-yl}-1-benzofuran-3-carboxamide]	164 nM	38.4 nM
CNC(=O)c1c(-c2ccc(F)cc2)oc2cc(N(C)S(C)(=O)=O)c([C@@H]3CCCN(S(=O)(=O)c4ccccc4C)C3)cc12 [Example 111, 2-(4-fluorophenyl)-N-methyl-6-[methyl(methylsulfonyl)amino]-5-{(3S)-1-[(2-methylphenyl)sulfonyl]piperidin-3-yl}-1-benzofuran-3-carboxamide]	68.1 nM	17.2 nM
CNC(=O)c1c(-c2ccc(F)cc2)oc2cc(N(C)S(C)(=O)=O)c([C@@H]3CCCN(S(=O)(=O)c4ccc5ncsc5c4)C3)cc12 [Example 112, 5-[(3S)-1-(1,3-benzothiazol-6-ylsulfonyl)piperidin-3-yl]-2-(4-fluorophenyl)-N-methyl-6-[methyl(methylsulfonyl)amino]-1-benzofuran-3-carboxamide]	25 nM	6.79 nM
CNC(=O)c1c(-c2ccc(F)cc2)oc2cc(N(C)S(C)(=O)=O)c([C@@H]3CCCN(S(=O)(=O)c4ccc(C)cc4)C3)cc12 [Example 113, 2-(4-fluorophenyl)-N-methyl-6-[methyl(methylsulfonyl)amino]-5-{(3S)-1-[(4-methylphenyl)sulfonyl]piperidin-3-yl}-1-benzofuran-3-carboxamide]	64.6 nM	21.9 nM
CNC(=O)c1c(-c2ccc(F)cc2)oc2cc(N(C)S(C)(=O)=O)c([C@@H]3CCCN(S(=O)(=O)c4cccc(F)c4)C3)cc12 [Example 114, 2-(4-fluorophenyl)-5-{(3S)-1-[(3-fluorophenyl)sulfonyl]piperidin-3-yl}-N-methyl-6-[methyl(methylsulfonyl)amino]-1-benzofuran-3-carboxamide]	34.2 nM	8.2 nM
CNC(=O)c1c(-c2ccc(F)cc2)oc2cc(N(C)S(C)(=O)=O)c([C@@H]3CCCN(S(=O)(=O)c4ccc(F)cc4)C3)cc12 [Example 115]	36.6 nM	8 nM
CNC(=O)c1c(-c2ccc(F)cc2)oc2cc(N(C)S(C)(=O)=O)c([C@@H]3CCCN(S(=O)(=O)C4CCCCC4)C3)cc12 [Example 116, 5-[(3S)-1-(cyclohexylsulfonyl)piperidin-3-yl]-2-(4-fluorophenyl)-N-methyl-6-[methyl(methylsulfonyl)amino]-1-benzofuran-3-carboxamide]	194 nM	31.7 nM
